Laboratory results from publication PMC5789847, “Bismuth antimicrobial drugs serve as broad-spectrum metallo-β-lactamase inhibitors” (Nature Communications, 2018).
“And” between values parts separate entries of the source, which are not always exact repeats. Equal entries are not always repeated.

Tests used:
[1] = tested on: NDM-Rosetta; assay: Microdilution MIC assay; format: cell-based, E. coli
Description: (§1) Other procedures were kept strictly the same.

[2] = tested on: NDM-BL21; assay: Microdilution MIC assay; format: cell-based, E. coli
Description: as §1

[3] = target: T1, NDM-1 (Klebsiella pneumoniae, UniProt C7C422); format: biochemical; settings: MER substrate
Method: (§2) Freshly prepared 50 nM of Zn2-NDM-1, Zn2-VIM-2, or Zn2-IMP-4 in 50 mM HEPES/Na pH 7.0, 100 mM NaCl were first incubated with various concentrations of CBS for 1 h at 25 °C, then mixed with equal volume of 0.2 mM MER. The assay was performed in a 1 cm quartz cuvette using the kinetic mode on a Varian Cary50 UV-visible spectrophotometer at 25 °C. The decrease in absorbance at 300 nm due to ring-opening of MER was monitored every second for a duration of 10 min until the reaction was completed. The initial rates were extracted and calculated from each reaction curves for fitting IC50 curves.

[4] = target: VIM-2 (Escherichia coli, UniProt Q5U7L7); format: biochemical; settings: MER substrate
Method: as §2

[5] = tested on: NDM-HK; assay: In vitro cell infection assay (MDCK cells); format: cell-based, E. coli
Method: MDCK cell was cultured in minimum essential Media (MEM) supplemented with fetal bovine serum (FBS, 10%) and grown at 37 °C in 5% CO2-humidified atmosphere for 3 days. About 1.0 × 10^5 MDCK cells were seeded per well in 24-well plates and incubated as described above for 48 h to ensure confluency. Logarithmic cultures of NDM-HK were washed with PBS for three times and re-suspended in MEM/10% FBS resulting in the initial bacterial density of about 2.0 × 10^7 CFU mL^−1. Then, 500 μL of bacterial suspension were added to each well and substituted for the previous MDCK culture medium. The plates were centrifuged at 800 × g for 10 min and then incubated for another 6 h, executing the bacterial infection at multiplicity of infection (MOI) of 200. We then used two infection models for examination, viz, the cell-associated bacterial infection and cell-invaded bacterial infection. The cell-associated bacteria are herein defined as bacteria that attach to, penetrate, or transcytose in MDCK cells, while the cell-invaded bacteria are defined as bacteria that penetrate or transcytose MDCK cells. For the cell-invaded infection, the infected cells were incubated in culture medium supplemented with ciprofloxacin (100 µg mL^−1) for 1 h to remove extracellular bacteria. Then, the treated cells were washed vigorously with PBS for six times and replenished with culture medium. For the cell-associated infection, the infected cells were only washed vigorously with PBS for six times to remove unbound bacteria. The infected MDCK cells were then exposed to either MER or CBS, or their combination for overnight under identical cell culture condition. Cells in the absence of drugs served as a control. The bacterial loads were examined by lysing MDCK cells with 1% Triton X-100 in PBS and serially diluting the resulting lysates to enumerate bacterial colonies by agar plating. The assay was performed in triplicate, repeated three times, and results were expressed as average ± SD.

[6] = tested on: C208A-Rosetta; assay: Microdilution MIC assay; format: cell-based, E. coli; settings: C208A-Rosetta
Method: For the test of C208A-Rosetta, the growth condition briefly goes as follow. Overnight culture of C208A-Rosetta was diluted into fresh LB medium (1000-fold) and regrew to OD ~0.6. The overexpression of NDM-1-C208A was induced by addition of 200 μM isopropyl β-D-1-thiogalactopyranoside (IPTG) for 18 h at 25 °C. The following susceptibility test was performed as described in the Microdilution MIC and MBC assay section in the methodology by using the resulting bacterial pellets with the supplementation of 200 μM IPTG.
as §1

[7] = tested on: NDM-HK; assay: Resistance study: MPC and mutation frequency; format: cell-based, E. coli
[8] = target: T1, NDM-1; assay: Zinc displacement analysis by ICP-MS; format: binding; settings: Zn-bound NDM-1 20 μM + increasing CBS
Method: To monitor the displacement of Zn(II) by Bi(III), ICP-MS was employed to accurately quantify ^209Bi and ^66Zn contents in various purified NDM-1 samples. Purified Zn-bound-NDM-1 (20 μM) dissolved in trace-metal-free ICP-MS buffer containing 50 mM HEPES, pH 7.0, was incubated with various concentrations of CBS at 25 °C for 5 h with mild shaking. The samples were subsequently dialyzed in ICP-MS buffer to remove unbound-metal ions and were then acidified and subsequently analyzed using an ICP-MS spectrometer (Agilent 7500a, Agilent Technologies, CA, USA) with ^115In as an internal standard for ^209Bi, ^66Zn, and ^34S contents, which are used to quantify protein concentration.

[9] = tested on: NDM-C. freundii (NDM-1^+); assay: Microdilution MIC/MBC and checkerboard assay; format: cell-based, Citrobacter freundii
Method: MIC values were determined by standard broth micro-dilution method (Clinical and Laboratory Standards Institute (CLSI) M100-S20, 2010)[64]. Briefly, bacterial cells were cultured in LB broth overnight at 37 °C at 250 rpm and the OD was measured at 600 nm (OD600). The bacterial density was adjusted to about 1 × 10^6 CFU mL^−1 and checked by CFU counting on agar plates afterwards. Tested antibiotics or Bi(III) compounds were added triplicately into individual wells of flat-bottomed 96-well plates and performed 2-fold serial dilution, followed by addition of prepared bacterial inocula. The plate was then incubated at 37 °C for overnight. […] The MIC was determined as the lowest concentration of a drug that could inhibit the growth of microorganism by both visual reading and OD reading at 600 nm using a microtiter plate reader.
Resulting growth (or lack of growth) was examined after overnight culturing and the lowest concentration that inhibits 99.9% of the original culture was taken as MBC.
Other procedures were kept strictly the same. […] Synergism was defined when FICI ≤ 0.5, indifference was defined when FICI > 0.5 and < 4, and antagonism was defined when FICI≥4[65]. […] All of the determinations were performed at least in triplicate on different days.

T1 sequence (C7C422 29-270, looked up, species assumed): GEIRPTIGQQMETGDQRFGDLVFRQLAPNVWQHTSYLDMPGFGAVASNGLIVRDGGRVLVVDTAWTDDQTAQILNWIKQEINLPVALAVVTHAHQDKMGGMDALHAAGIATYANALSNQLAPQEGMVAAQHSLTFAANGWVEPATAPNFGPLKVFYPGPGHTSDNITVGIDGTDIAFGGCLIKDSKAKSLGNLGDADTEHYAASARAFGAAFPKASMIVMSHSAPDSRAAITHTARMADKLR

colloidal bismuth subcitrate [CBS]
decrease in MIC of MER in combination with CBS ([1]; NDM-1 positive E. coli Rosetta(DE3)): 8 fold | MIC of MER in combination with CBS ([1]; NDM-1 positive E. coli Rosetta(DE3), CBS concentration not stated): 4 µg/mL | MIC of MER in combination with CBS at 16 µg mL-1 ([1]; NDM-Rosetta): 8 µg/mL | MIC of MER in combination with CBS at 32 µg mL-1 ([1]; NDM-Rosetta): 4 µg/mL | MIC of MER in combination with CBS at 256 µg mL-1 ([1]; NDM-Rosetta): 4 µg/mL | decrease in MIC of MER in combination with CBS ([2]; NDM-1 positive E. coli BL21(DE3)): 8 fold | MIC of MER in combination with CBS ([2]; NDM-1 positive E. coli BL21(DE3), CBS concentration not stated): 2 µg/mL | MIC of MER in combination with CBS at 16 µg mL-1 ([2]; NDM-BL21): 8 µg/mL | MIC of MER in combination with CBS at 32 µg mL-1 ([2]; NDM-BL21): 4 µg/mL | MIC of MER in combination with CBS at 256 µg mL-1 ([2]; NDM-BL21): 2 µg/mL | IC50 ([3]; NDM-1 50 nM, 1 h preincubation): 2.81 ± 0.34 µM | maximal inhibition of MBL activity ([3]; NDM-1, dose-dependent): approximately 90% | IC50 ([4]; VIM-2 50 nM, 1 h preincubation): 3.54 µM and 3.55 µM | maximal inhibition of MBL activity ([4]; VIM-2, dose-dependent): approximately 90% | decrease in the bacterial load, bacteria-invaded model ([5]; MER and CBS combination): more than 100 fold | viable bacterial loads, cell-associated infection ([5]; MOI 200, MER and CBS (32 μg mL^−1) in combination, overnight): ~10^4 CFU | MIC of MER in combination with CBS at 16 µg mL-1 [6]: 0.12 µg/mL | MIC of MER in combination with CBS at 32 µg mL-1 [6]: 0.12 µg/mL | observed mutation frequency ([7]; MER with increasing CBS concentration): 1.31 × 10^−7 to 9.84 × 10^−10 | MER MPC with CBS ([7]; ≥128 µg mL^−1 CBS): 2 fold MIC | Bi(III) bound to the enzyme [8]: 0.96 molar equivalents | Zn(II) displaced from NDM-1 [8]: ca. 2.13 molar equivalents | MBC of MER in combination with compound at 32 µg mL^-1 ([9]; NDM-C. freundii (NDM-CF)): 1 µg/mL | MIC of MER in combination with compound at 32 µg mL^-1 ([9]; NDM-C. freundii (NDM-CF)): 0.5 µg/mL | MBC of Bi(III) compound alone ([9]; NDM-CF): > 256 µg/mL | MIC of Bi(III) compound alone ([9]; NDM-CF): > 256 µg/mL | FICI ([9]; NDM-CF, MER + compound, 256 µg mL^-1 set as MIC of Bi(III)): 0.125
